# Test results reported in PMC9360614, “Discovery of TIGIT inhibitors based on DEL and machine learning” (Frontiers in Chemistry, 2022).
# Biological target: T1, TIGIT/CD155 complex (Homo sapiens, UniProt Q495A1)
# T1 construct: purchased 63ADK000CB07PEG
# T1 sequence (Q495A1 22-141 limits assumed): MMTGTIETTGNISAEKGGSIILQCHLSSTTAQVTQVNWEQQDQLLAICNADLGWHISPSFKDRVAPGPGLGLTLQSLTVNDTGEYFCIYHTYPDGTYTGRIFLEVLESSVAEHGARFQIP
# Test: HTRF TIGIT/CD155 binding assay (blocking of TIGIT/CD155 complex)
# Details: for TIGIT binding effects compared with compound 1: derivatives with side chains R1, R2, R3 modified; for IC50: read-out: IC50, protein-protein blocking activity for TIGIT/CD155 complex
# Procedure: Thus, the most enriched library molecule was found in the TIGIT screening and marked as potential ligand 1 (highlighted red in Figure 2A), whereas it was not observed in the bead-only control (Supplementary Figure S1B). The hit compound 1 was re-synthesized by “off-DNA” (the structure is shown in Figure 2B), and corresponding binding affinity was tested utilizing homogeneous time-resolved fluorescence (HTRF) technology.
# For all compounds, the binding affinities were measured with TIGIT/CD155 Binding Assay (Immuno-Oncology, Part # 63ADK000CB07PEG) following the standard kit protocol.
Compound,TIGIT binding effects compared with compound 1,IC50,binding affinity rank among derivatives
COc1ccc2cc([C@H](C)C(=O)N[C@@H](Cc3csc4ccccc34)C(=O)NCc3ccc(OCC(=O)O)cc3)ccc2c1 [Compound a27],improved,–,–
COc1ccc(C(NC(=O)C(Cc2ccsc2)NC(=O)C(C)c2ccc3cc(OC)ccc3c2)c2ccc(OCC(=O)O)cc2)c(OC)c1 (stereo not shown) [Compound 1],–,20.7 µM,–
COc1ccc(C(NC(=O)[C@H](Cc2ccccc2)NC(=O)[C@@H](C)c2ccc3cc(OC)ccc3c2)c2ccc(OCC(=O)O)cc2)c(OC)c1 (stereo partly shown) [Compound a17],improved,–,–
COc1ccc(C(NC(=O)[C@H](Cc2ccsc2)NC(=O)/C=C/c2ccc3cc(OC)ccc3c2)c2ccc(OCC(=O)O)cc2)c(OC)c1 (stereo partly shown) [Compound a7],improved,3.9 µM,highest binding affinity
COc1ccc(C(NC(=O)[C@H](Cc2csc3ccccc23)NC(=O)[C@@H](C)c2ccc3cc(OC)ccc3c2)c2ccc(OCC(=O)O)cc2)c(OC)c1 (stereo partly shown) [Compound a16],improved,–,–
COc1ccc(C(NC(=O)[C@H](Cc2ccsc2)NC(=O)c2ccc3cc(OC)ccc3c2)c2ccc(OCC(=O)O)cc2)c(OC)c1 (stereo partly shown) [Compound a6],improved,–,–
COc1ccc(C(NC(=O)[C@H](Cc2cccc(C#N)c2)NC(=O)[C@@H](C)c2ccc3cc(OC)ccc3c2)c2ccc(OCC(=O)O)cc2)c(OC)c1 (stereo partly shown) [Compound a19],improved,–,–
COc1ccc(C(NC(=O)[C@H](Cc2ccc(F)cc2)NC(=O)[C@@H](C)c2ccc3cc(OC)ccc3c2)c2ccc(OCC(=O)O)cc2)c(OC)c1 (stereo partly shown) [Compound a18],improved,–,–
